Measurements published in PMC12154426, “TPP-Based Nanovesicles Kill MDR Neuroblastoma Cells and Induce Moderate ROS Increase, While Exerting Low Toxicity Towards Primary Cell Cultures: An In Vitro Study” (International Journal of Molecular Sciences, 2025).
Where two headings read alike, the source gives them in different places.

Tested on: HTLA 230
Test: MTS cell viability assay on HTLA 230 NB cells
Assay type: cell-based, human
Conditions: for cytotoxic effects vs. HTLA 230 higher than vs. HTLA ER: from IC50 values
Protocol: In this section, the strong anticancer effect of BPPB against ETO-sensitive HTLA 230 and multidrug-resistant (MDR) HTLA ER neuroblastoma (NB) cells previously reported was confirmed. Cell viability in HTLA 230 and HTLA ER cells exposed to increasing concentrations of BPPB for 24, 48, and 72 h was assessed by using the MTS essay, which is an efficient, eco- and user-friendly tool, commonly used to investigate the behaviour of cancer cells when exposed to specific treatments and how these treatments influence their growth and viability.
Following this, µM concentrations (x) were transformed in Log10 (x) (Figure 1e (HTLA 230) and Figure 1f (HTLA ER), traces with indicators and error bar). The nonlinear regression models of the Log10 (BPPB concentrations) vs. the normalized response (Hill Slope) shown in Figure 1e (HTLA 230) and Figure 1f (HTLA ER), traces without indicators, elaborated by GraphPad Prism software version 8.0.1 (GraphPad Software, Boston, MA, USA), gave us the IC50 values of BPPB for both cell populations at 24, 48, and 72 h of treatment.
HTLA 230 is a MYCN-amplified human stage-IV NB cell line, obtained from the G. Gaslini Institute, Genoa, Italy. The cytogenetic features of the HTLA 230 cell line include […] MYCN amplification, del(11)t(11;Y), balanced translocation t(1;17)(p36;q21), and dup(11p), which were previously described by Pezzolo et al.. Cells were periodically tested for mycoplasma contamination (Mycoplasma Reagent Set, Aurogene s.p.a, Pavia, Italy). After thawing and eight passages in the culture, cell morphology and proliferation were analyzed. […] Both cell populations were cultured in RPMI 1640 (Euroclone SpA, Pavia, Italy) supplemented with 10% fetal bovine serum (FBS; Euroclone, Pavia, Italy), 2 mM glutamine (Euroclone, Pavia, Italy), 1% penicillin/streptomycin (Euroclone, Pavia, Italy), 1% sodium pyruvate (Sigma-Aldrich, Sant Louis, MO, USA), and 1% amino acid solution (Sigma).
To determine the cytotoxic effects of BPPB, in vitro time- and dose-dependent experiments were carried out, as recently described. Briefly, cells were treated for 24, 48, and 72 h, with increasing concentrations (0.1–2.0 µM) of the compound. […] Cell cultures were carefully monitored before and during the experiments to ensure optimal cell density.
Cell viability was determined by using the CellTiter 96® AQueous One Solution Cell Proliferation MTS Assay (Promega, Madison, WI, USA), as previously described. MTS is a colorimetric method commonly used for determining cell viability. The cell survival rate, expressed as the cell viability percentage (%), was evaluated based on the experimental outputs of treated cells vs. the untreated ones (CTRs), and was calculated as follows: cell viability (%) = (OD treated cells − OD blank)/(OD untreated cells − OD blank) × 100%. IC50 values were calculated by GraphPad Prism 8.0.1 Software (GraphPad Software v8.0, San Diego, CA, USA), as detailed in the Results and Discussion in Section 2.

c1ccc([P+](CCCCCCCCCCCC[P+](c2ccccc2)(c2ccccc2)c2ccccc2)(c2ccccc2)c2ccccc2)cc1 [BPPB, 1,1-(1,12-dodecanediyl)-bis-[1,1,1]-triphenyl phosphonium di-bromide]
cell viability (0.25 µM, 72 h): 47.6%
cell viability (0.5 µM, 48 h): 41.8%
cell viability (0.75 µM, 24 h): 42.5%
concentration causing significant reduction in cells' viability (24 h): ≥ 0.5 µM
cell viability (24 h, concentrations ≥ 0.75 µM up to 2 µM): 39.3–45.3%
cytotoxic effects vs. HTLA 230 higher than vs. HTLA ER (24 h): 25.3%
IC50 (24 h exposure, 0.1–2 µM, read-out: IC50 HTLA 230): 0.926 ± 0.164 µM
concentration causing significant reduction in cells' viability (48 h): ≥ 0.1 µM
cell viability (48 h, concentrations ≥ 0.5 µM up to 2 µM): 36.2–41.9%
cytotoxic effects vs. HTLA 230 higher than vs. HTLA ER (48 h): 65.9%
IC50 (48 h exposure, 0.1–2 µM, read-out: IC50 HTLA 230): 0.462 ± 0.103 µM
concentration causing significant reduction in cells' viability (72 h): ≥ 0.25 µM
cytotoxic effects vs. HTLA 230 higher than vs. HTLA ER (72 h): 67.5%
cell viability (72 h, lowest value reached with increasing concentrations (up to 2 µM)): 21.7%
IC50 (72 h exposure, 0.1–2 µM, read-out: IC50 HTLA 230): 0.389 ± 0.0836 µM
more cytotoxic than TiO2-Ta nanoparticles (HTLA 230 and HTLA ER vs. SH-SY5Y, 24 h): 64–86 fold
anticancer effects higher than compound 3 with PDT/SDT (HTLA 230 and HTLA ER, 24 h): 10.3–14.7 times
more potent than Ag20Pep (HTLA 230 and HTLA ER, 24 h): 105–143 times
more potent than Ag40Pep (HTLA 230 and HTLA ER, 24 h): 132–182 times
more potent than Ag20Pep (HTLA 230 and HTLA ER, 48 h): 18–54 times
more potent than Ag40Pep (HTLA 230 and HTLA ER, 48 h): 29–90 times
cytotoxicity higher than that of compounds 9–13 of Skrzypczak et al. (HTLA 230 and HTLA ER, 72 h): 1.7–5.1 fold
more cytotoxic than AgNPs (HTLA 230 and HTLA ER, 72 h): 4–30 times
IC50 (over 24, 48, 72 h exposure, read-out: IC50 values towards drug-sensitive HTLA 230): 0.4 to 0.9 µM
